Among the data in patent US8436004B2, “Bicycloaniline derivative” (MSD K.K., priority 2007, dated 2013) are EC50 values, retold here.

For the experiment, the system named is Human colon cancer cells (WiDr). Kind of experiment: Checkpoint-escape effect in gemcitabine-treated WiDr cells (phosphorylated histone H3-positive cells). The experiment is classed as cell-based. The note with it: gemcitabine 100 nM 24 hours, then test compound + nocodazole 8 hours. From the text:
Pharmacological Test 3 (Method of Determining Drug Potency with Cells (Checkpoint-Escape Effect))
Fetal bovine serum (FBS) was obtained from Morgate; a medium of DMEM was from Invitrogen; gemcitabine was from Nippon Eli Lilly; nocodazole and 4′,6-diamidino-2-phenylindole were from Sigma; rabbit anti-phosphorylated histone H3 antibody was from Upstate; and fluorescence-labeled (Alexa Fluor 488) anti-rabbit IgG antibody was from Molecular Probe.
Human colon cancer cells (WiDr) were obtained from American Type Culture Collection (ATCC).
The cells were suspended in a medium of 10% FBS-added DMEM, and the cell suspension was applied to a poly-D-lysine-coated 96-well plastic plate (bought from Becton Dickinson) in an amount of 2000 cells/100 μL/well, in which the cells were incubated overnight in 5% CO2-95% air at 37° C. […] Next, this was washed with PBS, and a solution containing 4′,6-diamidino-2-phenylindole that had been diluted with 1% BSA/PBS to have a concentration 10 μg/mL and a fluorescence-labeled (Alexa Fluor 488) anti-rabbit IgG antibody that had been diluted 250-fold was added to it in an amount 50 μL/well, and reacted in a dark place at room temperature for 60 minutes. […]

Structures are written as SMILES. Where a name gives a salt, the structure may show the parent alone.

`CN1Cc2cc(Nc3ncc4c(=N)n(-c5c(Cl)cccc5Cl)c(=O)[nH]c4n3)ccc2C2(CC2)C1` [Example 1, 3-(2,6-dichlorophenyl)-4-imino-7-[(2′-methyl-2′,3′-dihydro-1′H-spiro[cyclopropane-1,4′-isoquinolin]-7′-yl)amino]-3,4-dihydropyrimido[4,5-d]pyrimidin-2(1H)-one dihydrochloride]: the EC50 was 37 nM.
